Results reported in patent US12171833B2, “Mucoadhesive polymeric drug delivery compositions and methods” (The University of British Columbia, priority 2020, dated 2024).

Tests used:
[1] = In vitro drug release from formulation A (dialysis mini chamber, PBS, 37° C.); format: physicochemical; details: 100 mg, PBS pH 7.4, 37° C., up to 30 hours
Procedure: Formulation A of PLGA 5%, HA 3%, PEG 92% was made up as described in TABLE 8. […] For the protein study the mini chamber was not closed but a small retaining sponge applied. The chamber was placed in 5 mL of PBS (pH 7.4 or PBS containing albumin to increase the solubility of docetaxel) and placed in an incubator at 37° C.

[2] = 30 min IV infusion, cited from earlier work

drug release from paste [1]: faster than the other two agents
SMILES: Nc1ccn([C@@H]2O[C@H](CO)[C@@H](O)C2(F)F)c(=O)n1 [gemcitabine]
AUC0-inf ([2]; 1250 mg/m^2 (32.1 mg/kg), literature): 12500 ng·h/mL
kel ([2]; 1250 mg/m^2, literature): 3.18 h⁻¹
t1/2 (terminal) ([2]; 1250 mg/m^2, literature): 13.8 min
